Source: patent US12410208B2, “(2-acetamidyl)thio-beta-D-galactopyranoside derivatives” (Idorsia Pharmaceuticals Ltd, priority 2020, dated 2025)
Like-named read-outs stand apart in the source and are kept apart here.

Experiments:
human Gal-1 (hGal-1) = human Gal-1 (hGal-1) (Homo sapiens, UniProt P09382); test: Competitive binding assay: biotinylated hGal-1 binding to microplate-adsorbed asialofetuin (ASF), spectrophotometric; conditions: hGal-1 binding to asialofetuin; Table 15; R and S epimers of selected Examples also listed; read-out: IC50 (Galectin-1 inhibition)
How it was run: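 Spectrophotometric competition readout with ABTS after streptavidin-peroxidase (80 ng/mL, 1 h, 4 °C) detection of bound biotinylated hGal-1.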

[1] = target: biotinylated human Gal-3 (hGal-3) (Homo sapiens, UniProt P17931); test: Competitive binding assay: biotinylated hGal-3 binding to microplate-adsorbed asialofetuin (ASF), spectrophotometric
How it was run: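 Serially diluted compounds competed with asialofetuin on the plate for biotinylated human Gal-3 during a 3 h incubation at 4° C. Streptavidin-peroxidase with ABTS gave the spectrophotometric signal. IC50 values were averaged over repeat runs.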

[2] = Gal-3 inhibition, Table 4, read-out: IC50
[3] = Table 10, hGal-3, read-out: IC50 (Gal-3 inhibition)
[4] = Gal-3 inhibition, Table 5, read-out: IC50

Sequence of biotinylated human Gal-3 (hGal-3) (P17931 whole entry): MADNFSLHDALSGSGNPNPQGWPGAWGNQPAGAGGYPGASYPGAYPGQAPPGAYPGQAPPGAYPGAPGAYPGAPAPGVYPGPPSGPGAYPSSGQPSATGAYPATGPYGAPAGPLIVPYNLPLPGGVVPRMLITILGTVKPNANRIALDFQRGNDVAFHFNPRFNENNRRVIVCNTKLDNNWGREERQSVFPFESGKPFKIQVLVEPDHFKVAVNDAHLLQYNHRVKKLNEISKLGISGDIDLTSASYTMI
Sequence of human Gal-1 (hGal-1) (P09382 whole entry): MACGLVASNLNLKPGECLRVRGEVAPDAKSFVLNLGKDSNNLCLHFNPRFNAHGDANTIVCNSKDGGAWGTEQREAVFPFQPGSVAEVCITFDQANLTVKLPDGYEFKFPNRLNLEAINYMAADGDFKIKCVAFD

Compound | IC50 (human Gal-1 (hGal-1)) [nM] | IC50 [1, 2] [nM] | IC50 ([1]; Table 12, hGal-3, read-out: IC50 (Gal-3 inhibition)) [nM] | IC50 [1, 3] [nM] | IC50 [1, 4] [nM]
2-(((2S,3R,4S,5R,6R)-3,5-Dihydroxy-6-(hydroxymethyl)-4-(4-(3,4,5-trifluorophenyl)-1H-1,2,3-triazol-1-yl)tetrahydro-2H-pyran-2-yl)thio)-N-ethyl-2-(4-hydroxy-1-methylpiperidin-4-yl)-N-methylacetamide [Example 2.40.203.] | 160 | 80 | – | – | –
2-(((2S,3R,4S,5R,6R)-3,5-Dihydroxy-6-(hydroxymethyl)-4-(4-(3,4,5-trifluorophenyl)-1H-1,2,3-triazol-1-yl)tetrahydro-2H-pyran-2-yl)thio)-2-(4-hydroxy-1-methylpiperidin-4-yl)-N-isobutyl-N-methylacetamide [Example 2.40.200.] | 190 | 80 | – | – | –
CO[C@@H]1[C@@H](n2cc(-c3cc(F)c(F)c(F)c3)nn2)[C@@H](O)[C@@H](CO)O[C@H]1SC(C(=O)N(C)CCC1CC1)C1(O)CCC(F)(F)CC1 (stereo partly drawn) [Example 2.44.217.I., N-(2-Cyclopropylethyl)-2-(4,4-difluoro-1-hydroxycyclohexyl)-2-(((2S,3R,4S,5R,6R)-5-hydroxy-6-(hydroxymethyl)-3-methoxy-4-(4-(3,4,5-trifluorophenyl)-1H-1,2,3-triazol-1-yl)tetrahydro-2H-pyran-2-yl)thio)-N-methylacetamide] | 110 | – | 50 | – | –
CN(C)C(=O)[C@@H](S[C@@H]1O[C@H](CO)[C@H](O)[C@H](n2cc(-c3cc(F)c(F)c(F)c3)nn2)[C@H]1O)C1(O)CCOCC1 [Example 2.41.201S., (S)-2-(((2S,3R,4S,5R,6R)-3,5-Dihydroxy-6-(hydroxymethyl)-4-(4-(3,4,5-trifluorophenyl)-1H-1,2,3-triazol-1-yl)tetrahydro-2H-pyran-2-yl)thio)-2-(4-hydroxytetrahydro-2H-pyran-4-yl)-N,N-dimethylacetamide] | 210 | 60 | – | – | –
CCN(CC1CCOCC1)C(=O)C(S[C@@H]1O[C@H](CO)[C@H](O)[C@H](n2cc(-c3cc(F)c(F)c(F)c3)nn2)[C@H]1OC)C1(O)CCC(F)(F)CC1 (stereo partly drawn) [Example 2.44.214.I.] | 20 | – | – | 30 | –
O=C(C(S[C@@H]1O[C@H](CO)[C@H](O)[C@H](n2cc(-c3cc(F)c(F)c(F)c3)nn2)[C@H]1O)C1(O)CCOCC1)N1CCCC1 (stereo partly drawn) [Example 2.41.211., 2-(((2S,3R,4S,5R,6R)-3,5-Dihydroxy-6-(hydroxymethyl)-4-(4-(3,4,5-trifluorophenyl)-1H-1,2,3-triazol-1-yl)tetrahydro-2H-pyran-2-yl)thio)-2-(4-hydroxytetrahydro-2H-pyran-4-yl)-1-(pyrrolidin-1-yl)ethan-1-one] | 330 | 130 | – | – | –
CN(CC(C)(C)F)C(=O)[C@@H](S[C@@H]1O[C@H](CO)[C@H](O)[C@H](n2cc(-c3cc(F)c(F)c(F)c3)nn2)[C@H]1O)C1(O)CCCCC1 [Example 2.39.222S., (S)-2-(((2S,3R,4S,5R,6R)-3,5-Dihydroxy-6-(hydroxymethyl)-4-(4-(3,4,5-trifluorophenyl)-1H-1,2,3-triazol-1-yl)tetrahydro-2H-pyran-2-yl)thio)-N-(2-fluoro-2-methylpropyl)-2-(1-hydroxycyclohexyl)-N-methylacetamide] | 90 | – | – | – | 20
O=C(C(S[C@@H]1O[C@H](CO)[C@H](O)[C@H](n2cc(-c3cc(F)c(F)c(F)c3)nn2)[C@H]1O)C1(O)CCC1)N1CCCCC1 (stereo partly drawn) [Example 2.34.208., 2-(((2S,3R,4S,5R,6R)-3,5-Dihydroxy-6-(hydroxymethyl)-4-(4-(3,4,5-trifluorophenyl)-1H-1,2,3-triazol-1-yl)tetrahydro-2H-pyran-2-yl)thio)-2-(1-hydroxycyclobutyl)-1-(piperidin-1-yl)ethan-1-one] | 520 | – | – | – | 380
CCN(C(=O)[C@H](S[C@@H]1O[C@H](CO)[C@H](O)[C@H](n2cc(-c3cc(F)c(F)c(F)c3)nn2)[C@H]1OC)C1(O)CCC(F)(F)CC1)C1CC1 [Example 2.44.238R.I.] | > 100000 | – | – | 1000 | –
